The nature of data set [1]: Kinetic solubility assay. Format: physicochemical. To be noted: for Kinetic solubility: 2 h incubation, absorbance 620 nm. How it is done: Protocol was based on literature [Perez et al. (2015) J Biomol Screen 20, 254-264]. The kinetic solubility assay was conducted in 96-well, flat-bottom, transparent polystyrene plates (Costar 9018, Corning, Tewksbury, Mass.). Six two-fold serial dilutions of an initial 10 mM test compound solution were prepared in DMSO. After a 2 h incubation period (to avoid missing slow precipitation) absorbance was measured at 620 nm by an EnVision multilabel plate reader. The kinetic solubility was estimated from the concentration of test compound that produced an increase in absorbance above the background levels (i.e. 1% DMSO in buffer).

Data set [2] concerns the target T1, Cav1.2 channel (Homo sapiens, UniProt Q13936).
T1 construct: expressed in transfected cells; host or cells: HEK293
As to the kind of experiment: Cardiotoxicity fluorescence-based assay, Cav1.2 channel. Format: cell-based. To be noted: HEK293 cells. How it is done:
(§1) Fluorescence-based assays were performed using HEK293 cell lines that stably express the Nav1.5-channel, Cav1.2-channel or hERG K+-channel, using FMP Red Dye (Molecular Devices), calcium-sensitive fluorescent dye Fluo-4 (Invitrogen) and FIuxOR™ reagent (Invitrogen), respectively, and a FLIPR Tetra High-Throughput Cellular Screening System (Molecular Devices), according to manufacturer's protocols (Molecular Devices). Tetrodotoxin (TTX), israpidine and nicarpidine, and astemizole and haloperidol were used as standard sodium channel, calcium channel, and hERG channel blockers. Data were analyzed using Genedata Screener.

Data set [3] has as its target T2, CYP2C9 (Homo sapiens, UniProt P11712).
T2 construct: containing Human Liver Microsomes (HLM) (0.5 mg/mL); from tissue; host or cells: human liver microsomes
The data set is described as follows: CYP450 enzyme inhibition assay, CYP2C9. In kind it is in vitro ADME. To be noted: human liver microsomes; for IC50: diclofenac probe. On the procedure: Protocol was based on literature [Perez-Del Palacio et al. (2017) Front Pharmacol 8, 202]. Assessment of CYP450 inhibition was conducted in 96-well plate format at 37° C. Test compounds were dissolved in DMSO/acetonitrile (2 μL) and diluted in 98 μL NADPH solution (2 mM). Reactions were started by addition of 100 μL potassium phosphate buffer (200 mM, pH 7.4) containing Human Liver Microsomes (HLM) (0.5 mg/mL). Probe reactions for CYP3A4, CYP2D6 and CYP2C9 were conducted with 50 μM testosterone, 22 μM dextromethorphan and 10 μM diclofenac for 15 min. Reactions were terminated with the addition of a quench solution (90 μL) of acetonitrile containing internal standards for LC-MS/MS determination (60 ppb cortisone, 100 ppb 4′-hydroxydiclofenac 13C6, 60 ppb levallorphan).
Background: Microsomes from liver hold many membrane-bound enzymes, among them those of drug oxidation.

In data set [4] the target is T3, Nav1.5 channel (Homo sapiens, UniProt Q14524).
T3 construct: expressed in transfected cells; host or cells: HEK293
The data set is described as follows: Cardiotoxicity fluorescence-based assay, Nav1.5 channel. Format: cell-based. To be noted: HEK293 cells. How it is done: as §1

A short description of data set [5]: Plasma protein binding assay (rapid equilibrium dialysis). In kind it is in vitro ADME. Conditions: for Protein binding: rapid equilibrium dialysis, 5 μM, 5 h. How it is done: Protocol was based on literature [Kumar Singh et al. (2012)1 Bioeq. Bioay. S14]. Rapid equilibrium dialysis was performed with RED device inserts (Thermo Scientific, Meridian Rd., Rockford, Ill.) containing dialysis membrane with a molecular weight cut-off of 8,000 Daltons. Serum (200 μL) containing test compound (5 μM) was added to the serum chamber of the insert and 350 μL of buffer was added to the buffer chamber of the insert. Dialysis was done at 37° C. with shaking at 100 rpm for 5 h. Following dialysis, an aliquot of 50 μL was removed from each well (plasma and buffer side) and diluted with an equal volume of opposite matrix to nullify the matrix effect. Then a fraction (50 μL) of each dialyzed sample was crashed with 150 μL of acetonitrile containing internal standard and vortexed for 1 min. The samples were centrifuged at 13300 rpm at 4° C. for 12 min and 100 μL of supernatant was used for LC-MS/MS analysis.
Background: In equilibrium dialysis free small molecules cross a membrane that holds back macromolecules.

Data set [6] in a line: Metabolic stability assay (hepatic clearance). Format: in vitro ADME. Conditions: human liver microsomes; for Hepatic clearance / Hepatic clearance t1/2 (half-life): 1 μM. On the procedure: The assay was performed with a mixture of test compounds (1 μM), NADPH (4 mM) and Human Liver Microsomes (HLM) (1 mg/mL) incubated at 37° C. Reactions were quenched at 0, 15, 30, 45, 60, and 90 min, using an equal volume of acetonitrile and then diluted 1:1 with water prior to analysis by LC-MS/MS. The analysis was performed using an Agilent Series 1290 LC system (Agilent Technologies, Santa Clara, Calif., USA) using a Supelco Discovery HS C18 (2.1×50 mm) 3 µm column that was held at 30° C. Solvent A contained water with 0.1% formic acid and solvent B contained acetonitrile with 0.1% formic acid, and the flow rate was set at 400 μL/min. The gradient elution was performed as follows: 0-0.5 min 0% eluent B; 0.5-7 min 100% eluent B; 7-9 min 100% eluent B; 9-9.2 min 0% eluent B; and 9.2-10.5 min 0% eluent B. An API 4000 mass spectrometer in positive ESI mode (AB SCIEX, Concord, ON, Canada) was used with a generic method for data acquisition on all compounds. Data processing was performed using MultiQuant Software (AB SCIEX, Concord, ON, Canada) to process the data. Peak areas were used to plot the Ln % remaining relative to time (t)=0. The slope of the natural log of the percent remaining versus time was calculated to determine the first-order rate constant (k) and the half-life (t1/2) of the test compounds according to the following equation: t1/2=0.693/k (min)

A word on the IC50: it is the concentration at which inhibition is half-maximal.

T2 sequence (P11712 whole entry): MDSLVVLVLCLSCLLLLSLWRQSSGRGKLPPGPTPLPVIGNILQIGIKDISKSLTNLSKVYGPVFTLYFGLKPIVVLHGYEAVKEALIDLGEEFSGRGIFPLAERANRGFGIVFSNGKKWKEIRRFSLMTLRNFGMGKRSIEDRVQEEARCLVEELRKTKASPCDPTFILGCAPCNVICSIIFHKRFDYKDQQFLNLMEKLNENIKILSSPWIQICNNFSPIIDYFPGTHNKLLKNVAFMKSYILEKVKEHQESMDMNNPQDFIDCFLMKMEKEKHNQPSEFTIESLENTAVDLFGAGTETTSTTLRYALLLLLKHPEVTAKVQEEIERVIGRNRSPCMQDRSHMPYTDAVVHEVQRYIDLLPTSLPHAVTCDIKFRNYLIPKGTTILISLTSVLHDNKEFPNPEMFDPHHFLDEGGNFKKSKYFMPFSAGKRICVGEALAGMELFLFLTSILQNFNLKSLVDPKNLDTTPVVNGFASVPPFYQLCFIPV
T1 sequence (P54289 25-1103): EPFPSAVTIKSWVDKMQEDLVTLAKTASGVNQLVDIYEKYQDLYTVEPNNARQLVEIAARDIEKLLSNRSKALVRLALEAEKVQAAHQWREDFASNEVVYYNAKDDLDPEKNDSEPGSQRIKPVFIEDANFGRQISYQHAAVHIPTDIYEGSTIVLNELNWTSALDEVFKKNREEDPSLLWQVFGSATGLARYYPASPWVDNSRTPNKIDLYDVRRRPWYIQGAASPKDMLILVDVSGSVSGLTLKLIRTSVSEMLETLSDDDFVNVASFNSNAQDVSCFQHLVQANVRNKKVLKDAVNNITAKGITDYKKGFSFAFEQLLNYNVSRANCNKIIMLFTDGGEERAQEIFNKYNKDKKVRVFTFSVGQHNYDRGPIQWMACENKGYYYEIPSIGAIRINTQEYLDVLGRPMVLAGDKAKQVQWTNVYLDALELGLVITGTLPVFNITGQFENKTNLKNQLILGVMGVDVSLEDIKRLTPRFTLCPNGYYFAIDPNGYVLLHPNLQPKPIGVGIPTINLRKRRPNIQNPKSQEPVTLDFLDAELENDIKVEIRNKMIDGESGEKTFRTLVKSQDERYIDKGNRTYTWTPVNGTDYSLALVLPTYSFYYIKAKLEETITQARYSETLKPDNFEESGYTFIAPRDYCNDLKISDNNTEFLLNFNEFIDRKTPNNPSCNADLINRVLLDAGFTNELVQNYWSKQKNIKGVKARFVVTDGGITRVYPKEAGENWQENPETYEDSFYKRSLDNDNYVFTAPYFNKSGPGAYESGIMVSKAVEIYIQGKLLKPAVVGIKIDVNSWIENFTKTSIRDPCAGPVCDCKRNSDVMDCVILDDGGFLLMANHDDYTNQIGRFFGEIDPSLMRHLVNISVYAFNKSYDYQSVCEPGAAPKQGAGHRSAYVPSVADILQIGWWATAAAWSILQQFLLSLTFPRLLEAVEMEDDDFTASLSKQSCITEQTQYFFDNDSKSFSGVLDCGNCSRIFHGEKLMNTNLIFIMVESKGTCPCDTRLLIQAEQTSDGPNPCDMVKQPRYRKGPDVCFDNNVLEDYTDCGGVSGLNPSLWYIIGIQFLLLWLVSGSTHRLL
T1 sequence (Q08289 whole entry, further chain): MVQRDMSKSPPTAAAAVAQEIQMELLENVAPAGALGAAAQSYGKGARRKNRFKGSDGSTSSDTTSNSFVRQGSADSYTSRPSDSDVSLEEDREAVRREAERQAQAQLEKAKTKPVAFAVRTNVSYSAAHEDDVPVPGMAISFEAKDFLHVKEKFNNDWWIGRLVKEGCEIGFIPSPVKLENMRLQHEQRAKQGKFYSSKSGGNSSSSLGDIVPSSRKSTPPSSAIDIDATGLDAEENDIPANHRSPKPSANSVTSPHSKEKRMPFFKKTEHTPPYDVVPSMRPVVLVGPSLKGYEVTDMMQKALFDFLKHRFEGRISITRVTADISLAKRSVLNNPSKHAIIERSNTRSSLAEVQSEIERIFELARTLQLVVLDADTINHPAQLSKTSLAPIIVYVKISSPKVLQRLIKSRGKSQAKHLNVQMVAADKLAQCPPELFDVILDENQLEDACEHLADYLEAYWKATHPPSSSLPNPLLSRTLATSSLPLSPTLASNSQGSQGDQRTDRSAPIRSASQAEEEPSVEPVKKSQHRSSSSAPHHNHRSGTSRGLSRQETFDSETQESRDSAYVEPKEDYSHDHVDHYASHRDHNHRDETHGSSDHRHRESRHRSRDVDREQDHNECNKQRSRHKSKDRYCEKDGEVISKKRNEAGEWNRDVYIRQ
T1 sequence (Q13936 whole entry): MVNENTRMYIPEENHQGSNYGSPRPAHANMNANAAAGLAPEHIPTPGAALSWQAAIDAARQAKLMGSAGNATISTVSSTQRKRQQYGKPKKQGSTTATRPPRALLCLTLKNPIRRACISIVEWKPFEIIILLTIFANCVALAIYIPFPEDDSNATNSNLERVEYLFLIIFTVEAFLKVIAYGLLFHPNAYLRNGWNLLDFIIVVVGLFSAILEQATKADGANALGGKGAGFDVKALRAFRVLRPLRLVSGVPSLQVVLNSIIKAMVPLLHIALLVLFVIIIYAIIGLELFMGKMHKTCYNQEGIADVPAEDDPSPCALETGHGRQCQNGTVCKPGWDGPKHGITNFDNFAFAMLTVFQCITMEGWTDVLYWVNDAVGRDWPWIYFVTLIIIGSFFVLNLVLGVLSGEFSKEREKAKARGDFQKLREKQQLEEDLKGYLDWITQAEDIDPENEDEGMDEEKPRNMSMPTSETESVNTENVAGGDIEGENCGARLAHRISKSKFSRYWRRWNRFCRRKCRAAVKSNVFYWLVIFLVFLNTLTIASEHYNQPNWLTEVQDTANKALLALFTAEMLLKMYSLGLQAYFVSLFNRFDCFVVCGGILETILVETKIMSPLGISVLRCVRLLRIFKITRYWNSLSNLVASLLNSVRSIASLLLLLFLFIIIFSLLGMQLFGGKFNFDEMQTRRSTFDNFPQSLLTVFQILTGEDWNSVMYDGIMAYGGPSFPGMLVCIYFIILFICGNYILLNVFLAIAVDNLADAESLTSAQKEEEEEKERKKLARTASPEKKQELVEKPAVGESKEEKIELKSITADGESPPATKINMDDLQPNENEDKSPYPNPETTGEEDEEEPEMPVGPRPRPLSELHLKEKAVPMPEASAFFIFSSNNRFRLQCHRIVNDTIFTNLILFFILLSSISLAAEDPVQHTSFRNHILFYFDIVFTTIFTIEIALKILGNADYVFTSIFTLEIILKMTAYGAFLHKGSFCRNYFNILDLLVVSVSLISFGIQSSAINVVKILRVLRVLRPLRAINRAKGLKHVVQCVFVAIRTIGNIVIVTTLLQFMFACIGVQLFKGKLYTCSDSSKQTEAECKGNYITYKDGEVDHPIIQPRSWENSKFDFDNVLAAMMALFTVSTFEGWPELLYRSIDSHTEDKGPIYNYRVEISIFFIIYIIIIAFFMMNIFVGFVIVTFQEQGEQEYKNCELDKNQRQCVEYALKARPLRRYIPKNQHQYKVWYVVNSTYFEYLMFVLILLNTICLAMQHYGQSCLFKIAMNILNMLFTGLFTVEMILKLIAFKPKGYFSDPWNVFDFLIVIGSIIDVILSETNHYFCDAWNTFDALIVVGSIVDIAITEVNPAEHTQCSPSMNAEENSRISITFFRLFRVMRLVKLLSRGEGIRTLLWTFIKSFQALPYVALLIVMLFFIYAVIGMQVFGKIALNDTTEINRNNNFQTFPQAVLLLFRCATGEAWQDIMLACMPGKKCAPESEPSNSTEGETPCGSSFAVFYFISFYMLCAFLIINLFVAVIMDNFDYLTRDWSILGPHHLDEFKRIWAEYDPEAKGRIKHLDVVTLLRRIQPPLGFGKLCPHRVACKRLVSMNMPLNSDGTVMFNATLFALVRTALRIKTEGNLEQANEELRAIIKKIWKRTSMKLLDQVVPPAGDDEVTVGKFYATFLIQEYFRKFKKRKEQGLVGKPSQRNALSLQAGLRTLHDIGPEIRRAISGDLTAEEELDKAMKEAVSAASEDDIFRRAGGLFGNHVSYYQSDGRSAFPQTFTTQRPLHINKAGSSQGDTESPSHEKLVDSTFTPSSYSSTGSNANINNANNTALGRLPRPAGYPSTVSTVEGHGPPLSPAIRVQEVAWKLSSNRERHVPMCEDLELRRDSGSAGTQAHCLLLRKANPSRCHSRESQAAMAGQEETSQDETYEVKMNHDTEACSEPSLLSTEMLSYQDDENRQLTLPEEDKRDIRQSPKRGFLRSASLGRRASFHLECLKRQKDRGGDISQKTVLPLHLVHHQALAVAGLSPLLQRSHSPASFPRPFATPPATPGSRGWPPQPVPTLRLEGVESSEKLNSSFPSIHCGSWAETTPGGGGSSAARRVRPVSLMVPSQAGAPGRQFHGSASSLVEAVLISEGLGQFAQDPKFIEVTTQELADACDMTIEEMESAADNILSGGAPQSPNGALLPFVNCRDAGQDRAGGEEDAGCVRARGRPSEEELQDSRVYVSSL

With `CCc1ccc(C2=C(C)C(=O)C3(O2)C(=O)NC(OC)(C(=O)c2ccccc2)C3O)o1` (centres unmarked) [azaspirofuran A], in data set [1], the “Kinetic solubility, rating” value is “Acceptable” and the Kinetic solubility is greater than 100 µM. Also, in data set [2], the “Cardiotoxicity Cav1.2 channel, effect” value was “No effect” and the IC50 is greater than 50 µM. Further, in data set [3], the “CYP2C9, effect” value was “Weak” and the IC50 was found to be 47.3 µM. Besides, in data set [4], the “Cardiotoxicity Nav1.5 channel, effect” value is given as “Low” and 39.1 µM corresponded to half-maximal inhibition (IC50). In data set [5], the “Protein binding assay recovery” value is recorded as 66.7%; the “Protein binding, percentage of free drug rating” value is on record as “Low”; the Protein binding was 95%. This molecule also registered a Protein binding in data set [5] (listed as Azaspirofuran A) of 95.42%. In addition, in data set [6], the “Hepatic clearance, rating” value is reported as “Medium”; the Hepatic clearance is reported as 20.17 μL/ μL/min/mg protein; the “Hepatic clearance t1/2 (half-life)” value came out at 33 min. In addition, the “Hepatic clearance t1/2 (half-life)” value in data set [6] (listed as Azaspirofuran A) turned out to be 33.12 min.

Take `CC/C=C\[C@H](O)[C@H](O)C1=C(C)C(=O)[C@]2(O1)C(=O)N[C@](OC)(C(=O)c1ccccc1)[C@H]2O` [pseurotin A2]: in data set [1], the “Kinetic solubility, rating” value is “Acceptable” and the Kinetic solubility was greater than 100 µM. For the same molecule, in data set [2], the “Cardiotoxicity Cav1.2 channel, effect” value is “No effect” and the IC50 was greater than 50 µM. In data set [3], the “CYP2C9, effect” value is “No effect” and the IC50 is greater than 88 µM. In data set [4], the “Cardiotoxicity Nav1.5 channel, effect” value is “No effect” and the IC50 is greater than 50 µM. Besides, in data set [5], the “Protein binding assay recovery” value stood at 100%; the “Protein binding, percentage of free drug rating” value is on record as “High”; the Protein binding is 37%. For the same molecule, the Protein binding in data set [5] (listed as Pseurotin A2) is 36.53%. Further, in data set [6], the “Hepatic clearance, rating” value is listed as “Low”; the Hepatic clearance was less than 8.6 μL/ μL/min/mg protein; the “Hepatic clearance t1/2 (half-life)” value is greater than 60 min. Further, the “Hepatic clearance t1/2 (half-life)” value in data set [6] (listed as Pseurotin A2) was greater than 60 min.
